The target of one assay is T1, M4 muscarinic receptor (Homo sapiens, UniProt P08173).
T1 construct: expressed in transfected cells; host or cells: CHO (M4-CHO)
T1 sequence (P08173 1-479): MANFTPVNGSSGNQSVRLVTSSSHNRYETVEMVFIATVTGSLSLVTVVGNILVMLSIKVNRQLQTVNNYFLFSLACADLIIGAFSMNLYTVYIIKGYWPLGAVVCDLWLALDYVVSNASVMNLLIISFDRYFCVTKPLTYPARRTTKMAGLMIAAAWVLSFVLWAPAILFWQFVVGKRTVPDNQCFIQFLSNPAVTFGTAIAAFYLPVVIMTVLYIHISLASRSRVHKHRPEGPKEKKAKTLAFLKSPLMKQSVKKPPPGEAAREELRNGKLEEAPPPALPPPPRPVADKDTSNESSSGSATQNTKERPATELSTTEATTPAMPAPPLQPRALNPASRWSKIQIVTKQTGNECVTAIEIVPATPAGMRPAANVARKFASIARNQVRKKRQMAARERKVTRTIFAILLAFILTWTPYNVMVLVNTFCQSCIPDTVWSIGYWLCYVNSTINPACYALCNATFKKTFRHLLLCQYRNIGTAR
Nature of the assay: Functional mobilization of intracellular calcium (FLIPR) in M4-CHO cells. The assay is classed as cell-based. In outline: (§1)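 FLIPR Ca2+ read, ex 488/em 540 nm, 60 s. Recombinant CHO lines (M1 or M4), dye-loaded Fluo-3 AM 60-90 min at 37° C, probenecid 1 mM, pH 7.4. Agonist: compound alone; inhibition: 15 min compound pre-incubation, then carbachol at EC80 for that subtype.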

The next assay addresses T2, M1 muscarinic receptor (Homo sapiens, UniProt P11229).
T2 construct: expressed in transfected cells; host or cells: CHO (M1-CHO)
T2 sequence (P11229 1-460): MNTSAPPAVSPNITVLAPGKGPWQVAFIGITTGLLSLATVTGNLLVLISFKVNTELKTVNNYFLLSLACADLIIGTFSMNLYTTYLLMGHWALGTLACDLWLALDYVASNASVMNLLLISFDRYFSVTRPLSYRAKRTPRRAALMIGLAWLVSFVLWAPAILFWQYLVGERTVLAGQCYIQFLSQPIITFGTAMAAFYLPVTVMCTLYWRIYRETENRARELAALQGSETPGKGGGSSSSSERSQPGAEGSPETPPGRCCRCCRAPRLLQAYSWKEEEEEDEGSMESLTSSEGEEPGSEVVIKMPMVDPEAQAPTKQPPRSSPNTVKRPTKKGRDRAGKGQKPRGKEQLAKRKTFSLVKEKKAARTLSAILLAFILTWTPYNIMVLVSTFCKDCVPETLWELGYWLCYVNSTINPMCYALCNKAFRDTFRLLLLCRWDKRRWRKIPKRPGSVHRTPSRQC
Nature of the assay: Functional mobilization of intracellular calcium (FLIPR) in M1-CHO cells. It is filed as cell-based. In outline:
as §1
Background: Calcium flux is commonly read through the fluorescence of an indicator in the cells.

[1] abbreviates: Table 4, 100% efficacy is the maximum response obtained with the Carbachol control.
[2] abbreviates: Table 4, modulating M4 receptor.
Setting [3] is: Table 4, modulating M1 receptor.
Setting [4] is: M4-CHO cells, calcium mobilization (FLIPR).
Where [5] appears, read: M4-CHO cells, calcium mobilization (FLIPR), read-out: M4 Efficacy.
[6] abbreviates: M1-CHO cells, calcium mobilization (FLIPR).
The mark [7] stands for this setting: M1-CHO cells, calcium mobilization (FLIPR), read-out: M1 Efficacy.
The mark [8] stands for this setting: Table 4, M4 receptor, calcium mobilization (FLIPR).
Where [9] appears, read: Table 4, M1 receptor, calcium mobilization (FLIPR).

Where two headings read alike, the source gives them in different places.

For `CC(=O)N[C@H]1CC2(CCN(C3CCN(C)CC3C)CC2)c2ccccc21` (stereo partly drawn) [compound 436], the Emax at M4 muscarinic receptor (setting [1]) and on M1 muscarinic receptor (setting [1]) was less than 25% in each case. Moreover, the “M4 Activity” value on M4 muscarinic receptor (setting [2]) is listed as “x (activity was measured to be greater than 5.0 μM)”. Further, at M1 muscarinic receptor (setting [3]), the “M1 Activity” value was “x (activity was measured to be greater than 5.0 μM)”.

With `CCC=CCOC(=O)N1C2CCC1CC(N1CCC3(CC1)CN(C(C)=O)c1ccccc13)C2` (stereo not drawn) [compound 618], the Emax at M4 muscarinic receptor (setting [1]) and on M1 muscarinic receptor (setting [1]) was 25 to 100% each time. Besides, the “M4 Activity” value at M4 muscarinic receptor (setting [2]) is on record as “xxx (activity was measured to be less than 2.0 μM)”. Moreover, the “M1 Activity” value on M1 muscarinic receptor (setting [3]) is on record as “xxx (activity was measured to be less than 2.0 μM)”.

What is called EC50 is the concentration giving half of the maximal effect. For the compound `c1ccc2c(c1)NCC21CCN(C2CCCCC2)CC1` [compound 375], the EC50 on M4 muscarinic receptor (setting [4]) and at M1 muscarinic receptor (setting [6]) was less than 100 nM in each case. In addition, the Emax was 65 to 85% on M4 muscarinic receptor (setting [5]) and more than 85% on M1 muscarinic receptor (setting [7]).

Consider `CCOC(=O)N1CCC(CN2CCC3(CCc4ccccc43)CC2)CC1` [compound 414], for which the EC50 on M4 muscarinic receptor (setting [4]) and on M1 muscarinic receptor (setting [6]) was more than 1000 nM each time. Further, the Emax on M4 muscarinic receptor (setting [5]) and on M1 muscarinic receptor (setting [7]) was less than 65% throughout.

On to `CC#CCOC(=O)N1CC[C@@H](CN2CCC3(CC2)CN(C(=O)N(C)C)c2ccc(F)cc23)C1` [compound 939], for which the Emax on M4 muscarinic receptor (setting [1]) and on M1 muscarinic receptor (setting [1]) was 25 to 100% throughout. Besides, the “M4 Activity” value at M4 muscarinic receptor (setting [8]) is recorded as “xxx (activity was measured to be less than 2.0 μM)”. At M1 muscarinic receptor (setting [9]), the “M1 Activity” value is recorded as “xxx (activity was measured to be less than 2.0 μM)”.

For the compound `C#CCCOC(=O)N1C2CCC1CC(N1CCC3(CC1)CN(C(C)=O)c1ccccc13)C2` (stereo not drawn) [compound 747], the Emax at M4 muscarinic receptor (setting [1]) and on M1 muscarinic receptor (setting [1]) was 25 to 100% each time. Moreover, on M4 muscarinic receptor (setting [2]), the “M4 Activity” value is “xxx (activity was measured to be less than 2.0 μM)”. For the same compound, the “M1 Activity” value at M1 muscarinic receptor (setting [3]) is “xxx (activity was measured to be less than 2.0 μM)”.

In the case of `CC(=O)N[C@H]1CC2(CCN(C3CCC(C(C)(C)C)CC3)CC2)c2ccccc21` (stereo partly drawn) [compound 638], the Emax at M4 muscarinic receptor (setting [1]) and at M1 muscarinic receptor (setting [1]) was less than 25% in each case. For the same compound, the “M4 Activity” value at M4 muscarinic receptor (setting [2]) is recorded as “x (activity was measured to be greater than 5.0 μM)”. Also, the “M1 Activity” value at M1 muscarinic receptor (setting [3]) is on record as “x (activity was measured to be greater than 5.0 μM)”.

On to `CCOC(=O)N1C2CCC1CC(N1CCC3(CC1)CN(C(=O)C(C)C)c1ccc(F)cc13)C2` (stereo not drawn) [compound 390], for which the EC50 was more than 1000 nM at M4 muscarinic receptor (setting [4]) and less than 100 nM at M1 muscarinic receptor (setting [6]). Besides, the figures for the Emax on M4 muscarinic receptor (setting [5]) and at M1 muscarinic receptor (setting [7]) were less than 65% and 65 to 85%, respectively.

As for `CCC#CCOC(=O)N1CC[C@H](CN2CCC3(CC2)CN(C(C)=O)c2ccccc23)C1` [compound 578], the Emax at M4 muscarinic receptor (setting [1]) and on M1 muscarinic receptor (setting [1]) was 25 to 100% throughout. Besides, the “M4 Activity” value on M4 muscarinic receptor (setting [2]) is on record as “xxx (activity was measured to be less than 2.0 μM)”. The “M1 Activity” value on M1 muscarinic receptor (setting [3]) is on record as “xxx (activity was measured to be less than 2.0 μM)”.

As to `CCOC(=O)N1CCC(N2CCC3(CC2)CN(C(=O)NCc2ccccc2)c2ccccc23)CC1` [compound 712], the Emax on M4 muscarinic receptor (setting [1]) and at M1 muscarinic receptor (setting [1]) was 25 to 100% throughout. Also, the “M4 Activity” value at M4 muscarinic receptor (setting [2]) is “xxx (activity was measured to be less than 2.0 μM)”. In addition, at M1 muscarinic receptor (setting [3]), the “M1 Activity” value was “xxx (activity was measured to be less than 2.0 μM)”.

As for `CC(=O)N1CC2(CCN(C[C@H]3CCN(c4cnccn4)C3)CC2)c2c(C)cccc21` [compound 860], the Emax at M4 muscarinic receptor (setting [1]) and on M1 muscarinic receptor (setting [1]) was 25 to 100% each time. At M4 muscarinic receptor (setting [8]), the “M4 Activity” value is “xxx (activity was measured to be less than 2.0 μM)”. For the same compound, on M1 muscarinic receptor (setting [9]), the “M1 Activity” value is listed as “xxx (activity was measured to be less than 2.0 μM)”.

Consider `CCC#CCOC(=O)N1CC[C@H](CN2CCC3(CC2)CN(C(=O)N(C)C)c2ccc(F)cc23)C1` [compound 675], for which the Emax on M4 muscarinic receptor (setting [1]) and at M1 muscarinic receptor (setting [1]) was 25 to 100% in each case. Moreover, the “M4 Activity” value on M4 muscarinic receptor (setting [2]) was “xxx (activity was measured to be less than 2.0 μM)”. Moreover, the “M1 Activity” value on M1 muscarinic receptor (setting [3]) is on record as “xxx (activity was measured to be less than 2.0 μM)”.

The record behind these values is patent publication US7786141B2 (Vertex Pharmaceuticals Incorporated, priority 2004, dated 2010).
